From patent publication US20100240093A1, “Isolated Staphylococcus Pseudolugdunensis” (priority 2006, published 2010) come the findings set out here.

Assay type in all cases: cell-based, Staphylococcus pseudolugdunensis
One assay concerns isolate B354. Put plainly: Disc diffusion antimicrobial susceptibility testing. Also: key: R—resistant; S—susceptible. The method, then:
(§1) In vitro antimicrobial susceptibility testing for amoxicillin-clavulanate, cefazolin, clindamycin, erythromycin, gentamicin, levofloxacin, minocycline, penicillin, rifampin, trimethoprim/sulfamethoxazole (SXT) and vancomycin was determined by a disc diffusion method in accordance with Clinical and Laboratory Standards Institute guidelines (CLSI Performance standards for antimicrobial disk susceptibility tests; Approved standard, 9th ed. (2006) Clinical and Laboratory Standards Institute, Wayne, Pa.).
In general terms: A growth-free zone around the sample is the usual read-out of agar diffusion tests.

The subject of a further assay is isolate B060. The description is as above. The method, then: as §1
The next assay concerns isolate B230. Described as above. The method, then:
as §1

In a further assay the test system is isolate B333. The assay is described as above. The method, then: as §1; also: key: R—resistant; S—susceptible
For a further assay, the system named is isolate B287. Described as above. The conditions noted are these: isolate 8287. The method, then: as §1; also: key: R—resistant; S—susceptible
Another assay relates to isolate B715. The description is as above. The settings on record: isolate 13715. As for the experimental part:
as §1

A further assay deals with isolate B277. The description is as above. The conditions noted are these: isolate 8277. As for the experimental part: as §1
The subject of another assay is isolate B837. The assay is described as above. As for the experimental part: as §1
The subject of the next assay is isolate B334. The description is as above. As for the experimental part: as §1
The test system of a further assay is isolate B739. The description is as above. The conditions noted are these: isolate 8739. As for the experimental part:
as §1

Another assay has as its system isolate B006. The description is as above. The method, then:
as §1

Another assay deals with isolate B292. The assay is described as above. The conditions noted are these: isolate 13292. The method, then:
as §1

The next assay concerns 12 isolates. Put plainly: Disc diffusion antimicrobial susceptibility testing, all isolates. As for the experimental part: as §1
For antimicrobial susceptibility in this document: key: R—resistant; S—susceptible.

Consider `C[C@H]1COc2c(N3CCN(C)CC3)c(F)cc3c(=O)c(C(=O)O)cn1c23` [Levofloxacin], for which the Antimicrobial susceptibility entry in the assay with isolate B354 is “S”; with isolate B060 it was “S”; in the assay on isolate B230, “R”; with isolate B333 it was “S”; with isolate B287 it was “R”; with isolate B715, “R”. The Antimicrobial susceptibility entry in the assay with isolate B277 is “S”; in the assay on isolate B837 it was “S”; in the assay on isolate B334, “R”; in the assay on isolate B739, “S”; in the assay on isolate B006, “S”; in the assay on isolate B292, “S”.

Turning to `CO[C@H]1/C=C/O[C@@]2(C)Oc3c(C)c(O)c4c(O)c(c(/C=N/N5CCN(C)CC5)c(O)c4c3C2=O)NC(=O)/C(C)=C\C=C\[C@H](C)[C@H](O)[C@@H](C)[C@@H](O)[C@@H](C)[C@H](OC(C)=O)[C@@H]1C` [Rifampin], the “Susceptibility of all 12 isolates” value in the assay with 12 isolates was “susceptible”. Besides, the Antimicrobial susceptibility entry with isolate B354, in the assay on isolate B060, in the assay with isolate B230, in the assay with isolate B333, with isolate B287 and in the assay with isolate B715 was “S” throughout. In addition, the Antimicrobial susceptibility entry in the assay with isolate B277, in the assay with isolate B837, in the assay on isolate B334, in the assay on isolate B739, in the assay with isolate B006 and with isolate B292 was “S” each time.

With `CCC[C@@H]1C[C@@H](C(=O)N[C@@H]([C@H]2O[C@H](SC)[C@H](O)[C@@H](O)[C@H]2O)[C@H](C)Cl)N(C)C1` [Clindamycin], the Antimicrobial susceptibility entry is given as “S” in the assay with isolate B354; “S” in the assay on isolate B060; “S” in the assay on isolate B230; “R” in the assay on isolate B333; “S” with isolate B287; “S” with isolate B715. In addition, the Antimicrobial susceptibility entry with isolate B277 was “S”; in the assay on isolate B837, “R”; in the assay with isolate B334, “R”; in the assay with isolate B739 it was “R”; in the assay with isolate B006 it was “S”; in the assay with isolate B292 it was “S”.

On to Trimethoprim/sulfamethoxazole, for which the Antimicrobial susceptibility result in the assay with isolate B354 was “S”; in the assay on isolate B060, “R”; in the assay with isolate B230, “R”; in the assay with isolate B333, “S”; with isolate B287 it was “R”; with isolate B715, “R”. In addition, the Antimicrobial susceptibility entry in the assay with isolate B277 is recorded as “S”; in the assay on isolate B837, “S”; in the assay on isolate B334, “R”; in the assay on isolate B739, “S”; in the assay with isolate B006 it was “S”; in the assay with isolate B292, “S”.

Turning to `CN(C)c1ccc(O)c2c1C[C@H]1C[C@H]3[C@H](N(C)C)C(O)=C(C(N)=O)C(=O)[C@@]3(O)C(O)=C1C2=O` [Minocycline], the Antimicrobial susceptibility entry with isolate B354, in the assay with isolate B060, in the assay with isolate B230, in the assay on isolate B333, with isolate B287 and in the assay with isolate B715 was “S” throughout. Further, the Antimicrobial susceptibility entry in the assay on isolate B277, in the assay on isolate B837, with isolate B334, in the assay on isolate B739, in the assay on isolate B006 and in the assay with isolate B292 was “S” throughout.

For the compound Penicillin, the Antimicrobial susceptibility entry in the assay with isolate B354 is recorded as “S”; with isolate B060 it was “R”; in the assay on isolate B230, “R”; in the assay on isolate B333, “R”; in the assay on isolate B287 it was “R”; in the assay on isolate B715, “R”. The Antimicrobial susceptibility result was “S” in the assay on isolate B277; “R” in the assay with isolate B837; “R” in the assay on isolate B334; “R” in the assay on isolate B739; “R” with isolate B006; “R” in the assay on isolate B292.

On to `CC[C@H]1OC(=O)[C@H](C)[C@@H](O[C@H]2C[C@@](C)(OC)[C@@H](O)[C@H](C)O2)[C@H](C)[C@@H](O[C@@H]2O[C@H](C)C[C@H](N(C)C)[C@H]2O)[C@](C)(O)C[C@@H](C)C(=O)[C@H](C)[C@@H](O)[C@]1(C)O` [Erythromycin], for which the Antimicrobial susceptibility result in the assay with isolate B354 is reported as “S”; in the assay on isolate B060, “S”; in the assay on isolate B230, “S”; in the assay with isolate B333 it was “R”; with isolate B287, “S”; in the assay on isolate B715, “S”. For the same compound, the Antimicrobial susceptibility result with isolate B277 was “S”; with isolate B837 it was “R”; with isolate B334 it was “R”; in the assay on isolate B739 it was “R”; with isolate B006, “R”; with isolate B292, “S”.

Consider `Cc1nnc(SCC2=C(C(=O)O)N3C(=O)[C@@H](NC(=O)Cn4cnnn4)[C@H]3SC2)s1` [Cefazolin], for which the Antimicrobial susceptibility entry with isolate B354 is listed as “S”; in the assay with isolate B060, “S”; with isolate B230, “S”; in the assay on isolate B333, “S”; with isolate B287, “S”; in the assay with isolate B715 it was “R”. In addition, the Antimicrobial susceptibility result with isolate B277 was “S”; with isolate B837 it was “R”; with isolate B334, “R”; with isolate B739 it was “R”; in the assay with isolate B006, “R”; in the assay on isolate B292, “S”.

In the case of Amoxicillin-clavulanate, the Antimicrobial susceptibility result in the assay on isolate B354 is “S”; in the assay on isolate B060, “S”; in the assay on isolate B230, “S”; in the assay with isolate B333, “S”; with isolate B287, “S”; with isolate B715, “R”. Also, the Antimicrobial susceptibility entry is listed as “S” with isolate B277; “R” in the assay on isolate B837; “R” in the assay with isolate B334; “R” with isolate B739; “R” in the assay with isolate B006; “S” in the assay with isolate B292.

In the case of Gentamicin, the “Susceptibility of all 12 isolates” value in the assay on 12 isolates is “susceptible”. The Antimicrobial susceptibility entry with isolate B354, with isolate B060, in the assay on isolate B230, in the assay on isolate B333, in the assay on isolate B287 and with isolate B715 was “S” in each case. Moreover, the Antimicrobial susceptibility result in the assay with isolate B277, in the assay on isolate B837, in the assay on isolate B334, in the assay on isolate B739, in the assay with isolate B006 and in the assay with isolate B292 was “S” throughout.

For `COc1cccc(OC)c1C(=O)N[C@@H]1C(=O)N2[C@@H]1SC(C)(C)[C@@H]2C(=O)O` [Methicillin], the Antimicrobial susceptibility entry with isolate B354 was “S”; with isolate B060, “S”; in the assay with isolate B230 it was “S”; in the assay on isolate B333 it was “S”; in the assay with isolate B287, “S”; in the assay with isolate B715, “R”. Moreover, the Antimicrobial susceptibility entry with isolate B277 was “S”; in the assay with isolate B837 it was “R”; in the assay with isolate B334, “R”; in the assay with isolate B739 it was “R”; in the assay on isolate B006, “R”; in the assay with isolate B292, “S”.
